target: T1, PI3K delta (Homo sapiens, UniProt O00329); assay: Enzymatic PI3K delta isoform inhibition (lipid kinase activity, Kinase-Glo); format: biochemical; conditions: enzymatic assay
T1 construct: for the full-length p110-d subunit are generated and fused by overlapping PCR; His tag (C); made in house; host or cells: baculovirus; Tn5 (Trichoplusia ni) or TiniPro insect cells
Procedure, shortened: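 Preferred format: PI3Kδ 10 nM with PI 10 μg/mL and ATP 1 μM in Tris 10 mM pH 7.5, MgCl2 3 mM, NaCl 50 mM, CHAPS, DTT; 60 min at RT, 8 concentrations. ATP depletion read by Kinase-Glo luminescence; IC50 from four-parameter logistic fit.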

T1 sequence (O00329 with tags, fused parts or gaps limits assumed): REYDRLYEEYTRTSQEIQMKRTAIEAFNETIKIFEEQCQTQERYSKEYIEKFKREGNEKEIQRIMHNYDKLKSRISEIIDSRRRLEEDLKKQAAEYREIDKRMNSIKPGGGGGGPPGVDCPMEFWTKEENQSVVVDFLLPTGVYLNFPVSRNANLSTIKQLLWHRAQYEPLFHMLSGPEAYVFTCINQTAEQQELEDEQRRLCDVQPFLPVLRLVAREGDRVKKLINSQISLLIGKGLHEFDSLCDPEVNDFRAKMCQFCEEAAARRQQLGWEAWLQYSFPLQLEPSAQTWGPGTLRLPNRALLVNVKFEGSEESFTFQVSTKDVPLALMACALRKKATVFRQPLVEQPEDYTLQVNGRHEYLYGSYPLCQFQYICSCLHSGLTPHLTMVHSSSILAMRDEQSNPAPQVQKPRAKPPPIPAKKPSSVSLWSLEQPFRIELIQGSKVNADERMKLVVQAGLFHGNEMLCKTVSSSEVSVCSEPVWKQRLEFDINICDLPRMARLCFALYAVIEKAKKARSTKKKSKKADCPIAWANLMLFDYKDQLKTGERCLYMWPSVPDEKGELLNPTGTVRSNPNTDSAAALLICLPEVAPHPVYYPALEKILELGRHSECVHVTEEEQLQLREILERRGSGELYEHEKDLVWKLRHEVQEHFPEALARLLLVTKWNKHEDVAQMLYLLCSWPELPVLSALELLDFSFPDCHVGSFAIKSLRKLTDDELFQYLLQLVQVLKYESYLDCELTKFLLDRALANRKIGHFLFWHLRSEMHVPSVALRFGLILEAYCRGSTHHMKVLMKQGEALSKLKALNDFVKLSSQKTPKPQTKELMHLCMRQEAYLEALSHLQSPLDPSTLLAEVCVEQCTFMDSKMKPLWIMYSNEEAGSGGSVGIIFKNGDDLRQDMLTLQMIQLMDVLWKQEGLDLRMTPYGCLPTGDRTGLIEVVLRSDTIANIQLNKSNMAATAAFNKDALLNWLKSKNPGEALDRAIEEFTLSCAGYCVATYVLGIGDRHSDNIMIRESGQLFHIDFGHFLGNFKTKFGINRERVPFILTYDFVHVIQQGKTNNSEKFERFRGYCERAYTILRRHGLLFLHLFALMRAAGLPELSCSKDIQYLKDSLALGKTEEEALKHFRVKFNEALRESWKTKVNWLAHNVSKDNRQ

`Cc1cc(-c2ccnc3cc(F)c(O[C@H]4CCN(C(=O)C5CCOCC5)C4)cc23)cnc1S(C)(=O)=O` [Example C2, {(S)-3-[7-Fluoro-4-(6-methanesulfonyl-5-methyl-pyridin-3-yl)-quinolin-6-yloxy]-pyrrolidin-1-yl}-(tetrahydro-pyran-4-yl)-methanone] and `COc1ncc(-c2ccnc3cc(F)c(O[C@H]4CCN(C(=O)C5CCS(=O)(=O)CC5)C4)cc23)cc1C` [Example C1, (1,1-Dioxo-hexahydro-1lambda*6*-thiopyran-4-yl)-{(S)-3-[7-fluoro-4-(6-methoxy-5-methyl-pyridin-3-yl)-quinolin-6-yloxy]-pyrrolidin-1-yl}-methanone] are within 1.5-fold of each other in IC50: 332 nM for the first, 302 nM for the second.

First: COc1ncc(-c2ccnc3ccc(O[C@H]4CCN(C(=O)[C@@H]5CCN(C(C)=O)C5)C4)cc23)cc1C(F)F [Example A24, 1-((R)-3-{(S)-3-[4-(5-Difluoromethyl-6-methoxy-pyridin-3-yl)-quinolin-6-yloxy]-pyrrolidine-1-carbonyl}-pyrrolidin-1-yl)-ethanone]
Second: COc1ncc(-c2ccnc3ccc(O[C@H]4CCN(C(=O)[C@@H]5CCN(C(C)=O)C5)C4)cc23)cc1C [Example A10, 1-((R)-3-{(S)-3-[4-(6-Methoxy-5-methyl-pyridin-3-yl)-quinolin-6-yloxy]-pyrrolidine-1-carbonyl}-pyrrolidin-1-yl)-ethanone]
The IC50 of the first is 2.4-fold higher: 12 nM for the first, 5 nM for the second. The second is the more potent here.

`COc1ncc(-c2ccnc3ccc(O[C@H]4CCN(C(=O)C5CCS(=O)(=O)CC5)C4)c(C)c23)cc1C` [Example B3, (1,1-Dioxo-hexahydro-1lambda*6*-thiopyran-4-yl)-{(S)-3-[4-(6-methoxy-5-methyl-pyridin-3-yl)-5-methyl-quinolin-6-yloxy]-pyrrolidin-1-yl}-methanone] and `COc1ncc(-c2ccnc3ccc(O[C@H]4CCN(C(=O)C5CCS(=O)(=O)CC5)C4)cc23)cc1C` [Example A15, (1,1-Dioxo-hexahydro-1lambda*6*-thiopyran-4-yl)-{(S)-3-[4-(6-methoxy-5-methyl-pyridin-3-yl)-quinolin-6-yloxy]-pyrrolidin-1-yl}-methanone] are within 1.5-fold of each other in IC50: 5 nM for the first, 7 nM for the second.

Going from `COc1ncc(-c2ccnc3ccc(O[C@H]4CCN(C(=O)C5CCS(=O)(=O)CC5)C4)cc23)cc1Cl` [Example A1, {(S)-3-[4-(5-Chloro-6-methoxy-pyridin-3-yl)-quinolin-6-yloxy]-pyrrolidin-1-yl}-(1,1-dioxo-hexahydro-1lambda*6*-thiopyran-4-yl)-methanone] to `COc1ncc(-c2ccnc3ccc(O[C@H]4CCN(C(=O)C5CCS(=O)(=O)CC5)C4)cc23)cc1C(F)F` [Example A6, {(S)-3-[4-(5-Difluoromethyl-6-methoxy-pyridin-3-yl)-quinolin-6-yloxy]-pyrrolidin-1-yl}-(1,1-dioxo-hexahydro-1lambda*6*-thiopyran-4-yl)-methanone], the IC50 rises from < 3 nM to 4 nM.

Compared with `COc1ncc(-c2ccnc3ccc(O[C@H]4CCN(C(=O)[C@@H]5CCN(C(C)=O)C5)C4)c(C)c23)cc1C(F)F` [Example B1, 1-((R)-3-{(S)-3-[4-(5-Difluoromethyl-6-methoxy-pyridin-3-yl)-5-methylquinolin-6-yloxy]-pyrrolidine-1-carbonyl}-pyrrolidin-1-yl)-ethanone], `CCC(=O)N1CC[C@H](Oc2ccc3nccc(-c4cnc(S(C)(=O)=O)c(C)c4)c3c2)C1` [Example A25, 1-{(S)-3-[4-(6-Methanesulfonyl-5-methyl-pyridin-3-yl)-quinolin-6-yloxy]-pyrrolidin-1-yl}-propan-1-one] is 2.4-fold higher in IC50: 5 nM for the first, 12 nM for the second. The first is the more potent here.
